Laboratory results reported in patent US20150020915A1, “Antiperspirant Spray Devices and Compositions” (The Procter & Gamble Company, priority 2013, published 2015).

Text: (§1) Solubility may be determined by measuring the amount of light transmittance (a light transmittance value) through a simple mixture of the non-volatile silicone fluid and liquid activation enhancer at the same weight/weight concentrations as in a final antiperspirant composition.
as §1, with “Solubility of a liquid activation enhancer in a non-volatile silicone” for “Solubility”, “(light” for “(a light”
The Spectronic Genesys 10 V is utilizes a tungsten-halogen light source and has a spectral bandwidth of 5 nm, a wavelength range of 325 to 1100 nm, accuracy of ±1 nm and a repeatability of ±0.5 nm. Readouts include absorbance, transmittance and concentration. The spectrophotometer is set to 640 nm wavelength and the percent transmittance mode/readout. Polystyrene spectrometer cuvettes having a 1 cm optical light path and transmittance between ˜340 nm and ˜900 nm are used. One suitable example of a spectrometer cuvette is available from VWR International LLC under Catalog #97000-584 having a 2.5 to 4.5 ml capacity. The spectrophotometer is calibrated according to the manufacturer's instructions using a reference cuvette and composition comprised of just the non-volatile silicone fluid of interest. For example, if the test composition comprises 50 centistoke dimethicone and 15% w/w of isopropyl myristate, then the spectrometer is calibrated using a cuvette containing just 50 centistoke dimethicone. Sample cuvettes are filled sufficiently with a test composition of a non-volatile silicone fluid and liquid activation enhancer so that the light path of the spectrophotometer passes through the test composition in the cuvette. The sample cuvettes are shaken well just prior to taking a light transmittance reading.

Row | Compound | solubility in 50 centistoke dimethicone (in words) | light transmittance value
1 | PPG-14 butyl ether | insoluble | 
2 | CCCCCCCCCCCCCC(=O)OC(C)C [isopropyl myristate] |  | about 101%
3 | CCCCCCCCCCC(CO)CCCCCCCC (centres unmarked) [octyldodecanol] | soluble in the 50 centistoke dimethicone at some (lower) concentrations | 
4 | CCCCCCCCCCCCCCCCCC(=O)OCCCC [butyl stearate] |  | about 100%
5 | CCCCCCCCCCCCCCCC(=O)OC(C)C [isopropyl palmitate] |  | about 101%
6 | mineral oil | soluble in 50 centistoke dimethicone at some (lower) concentrations | 
7 | CCCCCCCCCCCCCC(C)C [isohexadecane] | soluble | about 100%
